The results in this text go back to patent publication US8435976B2, “4-substituted pyridin-3-yl-carboxamide compounds and methods of use” (F. Hoffmann-La Roche, priority 2009, dated 2013).

Assay [1] addresses BaF3 PIM2 cells (Homo sapiens, UniProt Q9P1W9). Put plainly: BaF3 PIM2 cell proliferation (Cell Titer Glo). The format is cell-based. Particulars: incubated overnight; read-out: Prolif BaF3_PIM2 (IC50). Here is the method: (§1) BaF3 parental line was obtained from the DSMZ repository. BaF3 lines transfected with PIM1 or PIM2 were generated. Mouse IL-3 was purchased from R&D Systems. G418 was purchased from Clontech. Media for BaF3 parental line contained RPMI, 10% FBS, 2 mM L-Glutamine, 2 ng/mL mIL-3. Media for BaF3 PIM1 & 2 lines contained RPMI, 10% FBS, 2 mM L-Glutamine, […]. Media for MM1.S line contained RPMI, 10% FBS, 2 mM L-Glutamine.
(§2) BaF3 parental cells, BaF3 PIM1 cells, BaF3 PIM2 cells, and MM1.S cells were seeded at 2 k/well, 5 k/well, 5 k/well, and 10 k/well respectively, in a 384-well plate, at 45 μL/well. Test compound was added at 5 μL/well. BaF3 cells (parental and transfected) were incubated overnight, while MM1.S cells were incubated for 72 hours at 37° C., 5% CO2. Cell Titer Glo Reagent (Promega) was added at 50 μL/well, the plates were incubated for 30 minutes, and their luminescence read on an HT Analyst. IC50/EC50 values for the test compound were calculated.
For orientation: Cellular ATP, detected with luciferase, serves as a proxy for viable cell number.

Assay [2] deals with MM1.S cells. Put plainly: MM1.S cell proliferation, 72 hours (Cell Titer Glo). Type of assay: cell-based. Conditions: Homo sapiens, 72 hours, read-out: Prolif MM1S ATP (EC50). As for the experimental part:
as §1, §2

For assay [3], the target named is BaF3 PIM1 cells (Homo sapiens, UniProt P11309). Put plainly: BaF3 PIM1 cell proliferation (Cell Titer Glo). Type of assay: cell-based. Conditions: incubated overnight; read-out: Prolif BaF3_PIM1 (IC50). Here is the method:
as §1, §2

Assay [4] concerns the target T1, PIM3 (Homo sapiens, UniProt Q86V86).
T1 construct: made in house
Put plainly: Pim-3 kinase enzymatic assay (Caliper LC3000, FAM-Pimtide substrate). Type of assay: biochemical. Particulars: 55 pM PIM3, 10 μM ATP, 90 minutes; read-out: PIM3 LC3K (Ki). Here is the method:
(§3) Reaction Buffer contained 10 mM HEPES, pH 7.2, 10 mM MgCl2, 0.01% Tween 20, 2 mM DTT.
(§4) PIM reactions were carried out in a final volume of 10 μL per well in a 384-well plate. […] The separation of product and substrate was optimized by choosing voltages and pressure using Caliper's Optimizer software (Hopkinton, Mass.). The separation conditions used a downstream voltage of −500V, an upstream voltage of −2150V, and a screening pressure of −1.2 psi. […] Substrate conversion was calculated from the electrophoregram using HTS Well Analyzer software (Caliper Life Sciences, Hopkinton, Mass.). Ki values for the test compound were calculated.

In assay [5] the target is T2, PIM2 (Homo sapiens, UniProt Q9P1W9).
T2 construct: made in house
In words: Pim-2 kinase enzymatic assay (Caliper LC3000, FAM-Pimtide substrate). Particulars: 50 pM PIM2, 10 μM ATP, 90 minutes; read-out: PIM2 LC3K (Ki). The format is biochemical. As for the experimental part: as §3, §4

Assay [6] deals with T3, PIM1 (Homo sapiens, UniProt P11309).
T3 construct: made in house
In words: Pim-1 kinase enzymatic assay (Caliper LC3000, FAM-Pimtide substrate). Type of assay: biochemical. Conditions: 20 pM PIM1, 10 μM ATP, 90 minutes; read-out: PIM1 LC3K (Ki). Here is the method:
as §3, §4

BaF3 PIM2 cells, sequence (Q9P1W9 whole entry, change not shown): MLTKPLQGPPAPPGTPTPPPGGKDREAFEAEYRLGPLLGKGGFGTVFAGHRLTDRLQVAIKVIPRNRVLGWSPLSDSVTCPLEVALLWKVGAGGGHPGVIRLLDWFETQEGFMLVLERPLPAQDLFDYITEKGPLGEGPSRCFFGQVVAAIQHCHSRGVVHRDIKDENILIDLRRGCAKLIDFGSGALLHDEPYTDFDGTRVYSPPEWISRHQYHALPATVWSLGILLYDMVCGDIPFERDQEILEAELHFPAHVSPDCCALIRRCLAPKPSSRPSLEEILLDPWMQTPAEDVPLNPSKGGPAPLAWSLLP
T2 sequence (Q9P1W9 whole entry): as the sequence (Q9P1W9 whole entry, change not shown) above
T3 sequence (P11309 whole entry): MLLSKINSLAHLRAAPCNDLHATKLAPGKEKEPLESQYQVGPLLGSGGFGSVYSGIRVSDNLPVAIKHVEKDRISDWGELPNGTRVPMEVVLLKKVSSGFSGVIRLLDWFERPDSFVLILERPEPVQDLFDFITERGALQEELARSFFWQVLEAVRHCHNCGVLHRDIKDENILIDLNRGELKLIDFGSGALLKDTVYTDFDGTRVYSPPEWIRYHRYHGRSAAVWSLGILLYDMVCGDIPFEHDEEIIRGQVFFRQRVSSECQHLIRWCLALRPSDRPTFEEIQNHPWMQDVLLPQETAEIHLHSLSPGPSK
BaF3 PIM1 cells, sequence (P11309 whole entry, change not shown): as the sequence (P11309 whole entry) above

As to `Nc1sc(-c2c(F)cccc2F)nc1C(=O)Nc1cnccc1N1CCCCC1` [Example 24, 5-amino-2-(2,6-difluorophenyl)-N-(4-(piperidin-1-yl)pyridin-3-yl)thiazole-4-carboxamide], the GI50 in assay [1] was above 20000 nM; in assay [3], above 14000 nM. The EC50 in assay [2] stood at 20000 nM. The Ki was determined as 1.76 nM in assay [4], 16.3 nM in assay [5] and 0.43 nM in assay [6].
On to `Nc1sc(-c2c(F)cccc2F)nc1C(=O)Nc1cnccc1Cl` [Example 17, 5-amino-N-(4-chloropyridin-3-yl)-2-(2,6-difluorophenyl)thiazole-4-carboxamide], for which the GI50 in assay [1] and in assay [3] was above 20000 nM in each case. In addition, in assay [2], the EC50 was above 20000 nM. Moreover, the figures for the Ki in assay [4], in assay [5] and in assay [6] were 6.81 nM, 76.5 nM and 14 nM, respectively.
Take `CCCCOc1ccc(F)c(-c2nc(C(=O)Nc3cnccc3N3CCC[C@H](N)C3)c(N)s2)c1F` [Example 28, (S)-5-amino-N-(4-(3-aminopiperidin-1-yl)pyridin-3-yl)-2-(3-butyloxy-2,6-difluorophenyl)thiazole-4-carboxamide]: the GI50 in assay [1] was 2800 nM; in assay [3], 135 nM. In addition, the EC50 in assay [2] amounted to 1900 nM. The Ki in assay [4] stood at 0.118 nM; in assay [5] it was 0.434 nM; in assay [6], 0.102 nM.
In the case of `CCOc1ccc(F)c(-c2nc(C(=O)Nc3cnccc3N3CCC[C@H](N)C3)c(N)s2)c1F` [Example 26, (S)-5-amino-N-(4-(3-aminopiperidin-1-yl)pyridin-3-yl)-2-(3-ethoxy-2,6-difluorophenyl)thiazole-4-carboxamide], the GI50 came to 2400 nM in assay [1] and 28.2 nM in assay [3]. Moreover, the half-maximal effective concentration (EC50) in assay [2] worked out at 148 nM. For the same compound, the Ki in assay [4] worked out at 0.022 nM; in assay [5] it was 0.15 nM; in assay [6], 0.014 nM.
As to `Nc1sc(-c2ccccc2OC(F)(F)F)nc1C(=O)Nc1cnccc1N1CCC[C@H](N)C1` [Example 15], the GI50 in assay [1] came to 3300 nM; in assay [3], 945 nM. The EC50 in assay [2] was 4400 nM. The Ki in assay [4] amounted to 1.89 nM; in assay [5], 16.4 nM; in assay [6], 1.93 nM.
Take `Nc1sc(-c2ncccc2F)nc1C(=O)Nc1cnccc1N1CCC[C@H](N)C1` [Example 66, (S)-5-amino-N-(4-(3-aminopiperidin-1-yl)pyridin-3-yl)-2-(3-fluoropyridin-2-yl)thiazole-4-carboxamide]: the values for the GI50 in assay [1] and in assay [3] were 2100 nM and 40.6 nM, respectively. The EC50 in assay [2] was 2800 nM. Further, the Ki in assay [4] turned out to be 0.022 nM; in assay [5] it was 0.0894 nM; in assay [6], 0.05 nM.
In the case of `Nc1sc(C2CCCNC2)nc1C(=O)Nc1cnccc1N1CCCC(N)C1` (stereo not drawn) [Example 65, 5-amino-N-(4-(3-aminopiperidin-1-yl)pyridin-3-yl)-2-(piperidin-3-yl)thiazole-4-carboxamide], the GI50 in assay [1] and in assay [3] was above 20000 nM throughout. Besides, in assay [2], the EC50 was above 20000 nM. In addition, the Ki in assay [4] stood at 47.3 nM; in assay [5], 97.1 nM; in assay [6] it was 94.9 nM.
On to `Cc1cccc(-c2nc(C(=O)Nc3cnccc3N3CCC[C@H](N)C3)c(N)s2)c1` [Example 31, (S)-5-amino-N-(4-(3-aminopiperidin-1-yl)pyridin-3-yl)-2-(3-tolylthiazole)-4-carboxamide], for which the GI50 in assay [1] worked out at 2300 nM; in assay [3], 66.5 nM. For the same compound, the EC50 in assay [2] was found to be 1300 nM. The Ki in assay [4] is 0.023 nM; in assay [5], 0.339 nM; in assay [6] it was 0.0464 nM.
As to `CC(C)NC(=O)c1ccc(F)c(-c2nc(C(=O)Nc3cnccc3N3CCC[C@@H](N)C3)c(N)s2)c1` [Example 53, (R)-5-amino-N-(4-(3-aminopiperidin-1-yl)pyridin-3-yl)-2-(2-fluoro-5-(isopropylcarbamoyl)phenyl)thiazole-4-carboxamide], the GI50 in assay [1] amounted to 7600 nM; in assay [3], 273 nM. The half-maximal effective concentration (EC50) in assay [2] is 660 nM. For the same compound, the inhibition constant (Ki) was 0.146 nM in assay [4], 0.839 nM in assay [5] and 0.208 nM in assay [6].

The EC50 is the concentration needed to bring the measured effect to its halfway point. For orientation: Ki means a dissociation constant, usually derived from enzyme kinetics or from competition with a known ligand.
